Experimental data from the NIST ThermoML archive (doi:10.1021/je049808f).
Numbers after ± are expanded uncertainties.

Tests used:
[1] = cn = amount concentration of the nth substance listed, in mol/dm3; conditions: 100 kPa, Liquid
[2] = 298.15 K, Liquid; for viscosity: 100 kPa; for mass density: 101.33 kPa

[I-].[NH4+] [ammonium iodide] + CCO
[1]
Conditions	mass density [kg/m3]	viscosity [mPa·s]
298.15 K, c1 = 0.1638	804.1 ± 1.1	1.229 ± 0.038
298.15 K, c1 = 0.2289	811.7 ± 1.1	1.275 ± 0.04
298.15 K, c1 = 0.3302	823.9 ± 1	1.35 ± 0.042
298.15 K, c1 = 0.4015	832.7 ± 1	1.414 ± 0.044
298.15 K, c1 = 0.4696	841.1 ± 1	1.495 ± 0.046
298.15 K, c1 = 0.6094	859.4 ± 0.9	1.557 ± 0.048
298.15 K, c1 = 0.6694	867 ± 0.9	1.598 ± 0.049
298.15 K, c1 = 0.7343	875.8 ± 0.8	1.663 ± 0.051
298.15 K, c1 = 0.8676	894.5 ± 0.8	1.77 ± 0.053
298.15 K, c1 = 0.972	908.9 ± 0.7	1.839 ± 0.055
303.15 K, c1 = 0.1629	799.8 ± 1.1	1.12 ± 0.035
303.15 K, c1 = 0.2276	807.4 ± 1.1	1.161 ± 0.037
303.15 K, c1 = 0.3285	819.6 ± 1.1	1.225 ± 0.038
303.15 K, c1 = 0.3994	828.4 ± 1	1.284 ± 0.04
303.15 K, c1 = 0.4673	836.9 ± 1	1.359 ± 0.042
303.15 K, c1 = 0.6064	855.1 ± 0.9	1.413 ± 0.044
303.15 K, c1 = 0.6661	862.7 ± 0.9	1.454 ± 0.045
303.15 K, c1 = 0.7307	871.6 ± 0.9	1.499 ± 0.046
303.15 K, c1 = 0.8635	890.2 ± 0.8	1.599 ± 0.049
303.15 K, c1 = 0.9674	904.7 ± 0.7	1.674 ± 0.051
308.15 K, c1 = 0.162	795.5 ± 1.2	1.048 ± 0.033
308.15 K, c1 = 0.2264	803.1 ± 1.1	1.059 ± 0.034
308.15 K, c1 = 0.3268	815.3 ± 1.1	1.117 ± 0.035
308.15 K, c1 = 0.3974	824.1 ± 1	1.165 ± 0.037
308.15 K, c1 = 0.4658	834.2 ± 3	1.241 ± 0.039
308.15 K, c1 = 0.6033	850.8 ± 0.9	1.287 ± 0.04
308.15 K, c1 = 0.6628	858.4 ± 0.9	1.327 ± 0.041
308.15 K, c1 = 0.7271	867.3 ± 0.9	1.365 ± 0.042
308.15 K, c1 = 0.8593	885.9 ± 0.8	1.459 ± 0.045
308.15 K, c1 = 0.9628	900.4 ± 0.7	1.544 ± 0.047
313.15 K, c1 = 0.1611	791.1 ± 1.2	0.935 ± 0.03
313.15 K, c1 = 0.2252	798.8 ± 1.1	0.968 ± 0.031
313.15 K, c1 = 0.3251	811 ± 1.1	1.02 ± 0.033
313.15 K, c1 = 0.3952	819.7 ± 1.1	1.062 ± 0.034
313.15 K, c1 = 0.4634	829.3 ± 1	1.1 ± 0.035
313.15 K, c1 = 0.6003	846.5 ± 1	1.175 ± 0.037
313.15 K, c1 = 0.6595	854.1 ± 0.9	1.226 ± 0.038
313.15 K, c1 = 0.7235	863 ± 0.9	1.246 ± 0.039
313.15 K, c1 = 0.8551	881.6 ± 0.8	1.324 ± 0.041
313.15 K, c1 = 0.9582	896.1 ± 0.8	1.388 ± 0.043

[I-].[NH4+] [ammonium iodide] + CO
[1]
Conditions	mass density [kg/m3]	viscosity [mPa·s]
298.15 K, c1 = 0.1696	807.2 ± 1.1	0.597 ± 0.021
298.15 K, c1 = 0.3281	826.3 ± 1	0.628 ± 0.022
298.15 K, c1 = 0.4765	845.4 ± 1	0.674 ± 0.023
298.15 K, c1 = 0.5841	859.1 ± 0.9	0.692 ± 0.023
298.15 K, c1 = 0.5862	859.4 ± 0.9	0.688 ± 0.023
298.15 K, c1 = 0.7482	881.8 ± 0.8	0.737 ± 0.025
298.15 K, c1 = 0.8737	899.4 ± 0.8	0.771 ± 0.026
298.15 K, c1 = 0.9947	916.9 ± 0.7	0.802 ± 0.026
298.15 K, c1 = 1.105	933.34 ± 0.62	0.836 ± 0.027
298.15 K, c1 = 1.209	949.2 ± 0.6	0.865 ± 0.028
298.15 K, c1 = 1.334	968.4 ± 0.5	0.903 ± 0.029
298.15 K, c1 = 1.417	981.5 ± 0.4	0.93 ± 0.03
298.15 K, c1 = 1.507	996.2 ± 0.4	0.96 ± 0.031
303.15 K, c1 = 0.1686	802.6 ± 1.1	0.557 ± 0.02
303.15 K, c1 = 0.3262	821.6 ± 1.1	0.586 ± 0.02
303.15 K, c1 = 0.4739	840.8 ± 1	0.628 ± 0.022
303.15 K, c1 = 0.581	854.5 ± 0.9	0.648 ± 0.022
303.15 K, c1 = 0.7443	877.2 ± 0.8	0.688 ± 0.023
303.15 K, c1 = 0.8692	894.8 ± 0.8	0.719 ± 0.024
303.15 K, c1 = 0.9897	912.3 ± 0.7	0.749 ± 0.025
303.15 K, c1 = 1.099	928.8 ± 0.6	0.781 ± 0.026
303.15 K, c1 = 1.203	944.6 ± 0.6	0.809 ± 0.027
303.15 K, c1 = 1.327	963.8 ± 0.5	0.847 ± 0.028
303.15 K, c1 = 1.41	976.9 ± 0.5	0.868 ± 0.028
303.15 K, c1 = 1.5	991.6 ± 0.4	0.898 ± 0.029
308.15 K, c1 = 0.1676	797.9 ± 1.1	0.522 ± 0.019
308.15 K, c1 = 0.3018	813.9 ± 1.1	0.54 ± 0.019
308.15 K, c1 = 0.4712	836.1 ± 1	0.587 ± 0.02
308.15 K, c1 = 0.5799	850.1 ± 0.9	0.6 ± 0.021
308.15 K, c1 = 0.7404	872.6 ± 0.9	0.644 ± 0.022
308.15 K, c1 = 0.8647	890.2 ± 0.8	0.682 ± 0.023
308.15 K, c1 = 0.9847	907.6 ± 0.7	0.701 ± 0.024
308.15 K, c1 = 1.094	924.3 ± 0.7	0.729 ± 0.024
308.15 K, c1 = 1.197	940 ± 0.6	0.756 ± 0.025
308.15 K, c1 = 1.321	959.2 ± 0.5	0.789 ± 0.026
308.15 K, c1 = 1.403	972.3 ± 0.5	0.813 ± 0.027
308.15 K, c1 = 1.493	987 ± 0.4	0.84 ± 0.028
313.15 K, c1 = 0.1667	793.1 ± 1.2	0.49 ± 0.018
313.15 K, c1 = 0.3001	809.2 ± 1.1	0.506 ± 0.018
313.15 K, c1 = 0.4686	831.4 ± 1	0.551 ± 0.019
313.15 K, c1 = 0.5767	845.4 ± 1	0.563 ± 0.02
313.15 K, c1 = 0.7364	867.9 ± 0.9	0.604 ± 0.021
313.15 K, c1 = 0.8602	885.5 ± 0.8	0.631 ± 0.022
313.15 K, c1 = 0.9797	903 ± 0.7	0.658 ± 0.022
313.15 K, c1 = 1.089	920 ± 0.7	0.685 ± 0.023
313.15 K, c1 = 1.191	935.4 ± 0.6	0.71 ± 0.024
313.15 K, c1 = 1.315	954.6 ± 0.7	0.741 ± 0.025
313.15 K, c1 = 1.397	967.7 ± 0.6	0.763 ± 0.025
313.15 K, c1 = 1.486	982.4 ± 0.4	0.788 ± 0.026

CCO [ethanol]
[2]
Conditions	mass density [kg/m3]	viscosity [mPa·s]
–	785.2 ± 1.2	1.082 ± 0.034

CO [methanol]
[2]
Conditions	mass density [kg/m3]	viscosity [mPa·s]
–	786.2 ± 1.2	0.545 ± 0.019

[I-].[K+] [potassium iodide] + CO
[1]
Conditions	mass density [kg/m3]	viscosity [mPa·s]
298.15 K, c1 = 0.0906	800.8 ± 1.1	0.578 ± 0.02
298.15 K, c1 = 0.1458	809 ± 1.1	0.598 ± 0.021
298.15 K, c1 = 0.1806	814.3 ± 1.1	0.609 ± 0.021
298.15 K, c1 = 0.2451	824.3 ± 1	0.628 ± 0.022
298.15 K, c1 = 0.3767	845.3 ± 1	0.665 ± 0.023
298.15 K, c1 = 0.4151	851.6 ± 0.9	0.677 ± 0.023
298.15 K, c1 = 0.4787	862.2 ± 0.9	0.695 ± 0.023
298.15 K, c1 = 0.5381	872.4 ± 0.9	0.724 ± 0.024
298.15 K, c1 = 0.614	885.4 ± 0.8	0.737 ± 0.025
298.15 K, c1 = 0.6541	892.7 ± 0.8	0.75 ± 0.025
303.15 K, c1 = 0.0901	796.1 ± 1.2	0.539 ± 0.019
303.15 K, c1 = 0.1449	804.3 ± 1.1	0.558 ± 0.02
303.15 K, c1 = 0.1795	809.6 ± 1.1	0.568 ± 0.02
303.15 K, c1 = 0.2437	819.5 ± 1.1	0.587 ± 0.02
303.15 K, c1 = 0.3745	840.6 ± 1	0.62 ± 0.021
303.15 K, c1 = 0.4127	846.8 ± 1	0.631 ± 0.022
303.15 K, c1 = 0.476	857.5 ± 0.9	0.653 ± 0.022
303.15 K, c1 = 0.535	867.6 ± 0.9	0.664 ± 0.023
303.15 K, c1 = 0.6106	880.5 ± 0.8	0.685 ± 0.023
303.15 K, c1 = 0.6505	887.8 ± 0.8	0.697 ± 0.024
308.15 K, c1 = 0.0895	791.3 ± 1.2	0.504 ± 0.018
308.15 K, c1 = 0.1441	799.6 ± 1.1	0.522 ± 0.019
308.15 K, c1 = 0.1785	804.9 ± 1.1	0.532 ± 0.019
308.15 K, c1 = 0.2423	814.8 ± 1.1	0.548 ± 0.019
308.15 K, c1 = 0.3724	835.8 ± 1	0.58 ± 0.02
308.15 K, c1 = 0.4104	842 ± 1	0.59 ± 0.021
308.15 K, c1 = 0.4733	852.7 ± 0.9	0.615 ± 0.021
308.15 K, c1 = 0.5321	862.8 ± 0.9	0.623 ± 0.021
308.15 K, c1 = 0.6073	875.7 ± 0.8	0.639 ± 0.022
308.15 K, c1 = 0.647	883 ± 0.8	0.651 ± 0.022
313.15 K, c1 = 0.1432	794.8 ± 1.2	0.489 ± 0.018
313.15 K, c1 = 0.1774	800.1 ± 1.1	0.498 ± 0.018
313.15 K, c1 = 0.2409	810 ± 1.1	0.513 ± 0.018
313.15 K, c1 = 0.3704	831.1 ± 1	0.543 ± 0.019
313.15 K, c1 = 0.4081	837.2 ± 1	0.552 ± 0.019
313.15 K, c1 = 0.4707	847.8 ± 1	0.572 ± 0.02
313.15 K, c1 = 0.5291	858 ± 0.9	0.58 ± 0.02
313.15 K, c1 = 0.604	870.8 ± 0.9	0.598 ± 0.021
313.15 K, c1 = 0.6435	878.1 ± 0.8	0.608 ± 0.021
